Test results as given in US20240052053A1, “ENHANCEMENT OF ANTIBODY-DEPENDENT CELL-MEDIATED CYTOTOXICITY (ADCC)” (IO Biotech ApS, priority 2017, published 2024).
Entries after “also recorded” stand apart in the source; their conditions may differ.

Test system: U266 myeloma cells
Assay: 51Cr-release cytotoxic assay with PD-L1-specific CTLs
Assay type: cell-based, human
Settings: U266 cells pretreated with IFN-γ
Description: The cytotoxicity assay was performed as in Example 1. Briefly, HLA-A2-positive CTLs that were specific to PD-L1 were thawed, rested over-night and used as effector cells against 51 Cr-labeled HLA-A2-positive U266 myeloma cells in different effector to target (E:T)-cell ratios.

For “IFN-γ: Interferon gamma, a major inducer of PD-L1 expression, used to pretreat U266 cells”, which “killing of U266 cells by PD-L1 specific CTLs after pretreatment” value is on record?
The value was “more susceptible to being killed; also recorded: tendency towards increased killing”.
